Measured values: the NIST ThermoML archive (doi:10.1021/je5000132)

Test: xn = mol fraction of the nth substance listed
Conditions: for speed of sound: 100 kPa, Pulse-echo method; for speed of sound / viscosity / mass density: Liquid; for viscosity / mass density: 101 kPa; for viscosity: Concentric cylinders viscometry; for mass density: Vibrating tube method; for surface tension liquid-gas: 294.7 K, Drop volume

CC(CC(C)(C)C)CC(C)(C)C [2,2,4,6,6-pentamethylheptane] + CCCCCCCCCCCC
Conditions | mass density [kg/m3] | speed of sound [m/s] | viscosity [mPa·s]
293.15 K, x1 = 0.1 | 748.467 | 1288.5 | 1.45
293.15 K, x1 = 0.2 | 748.123 | 1279.3 | 1.42
293.15 K, x1 = 0.2885 | 747.857 | 1271.4 | 1.4
293.15 K, x1 = 0.3998 | 747.387 | 1261.4 | 1.37
293.15 K, x1 = 0.4999 | 747.034 | 1251.6 | 1.35
293.15 K, x1 = 0.6501 | 746.519 | 1238 | 1.33
293.15 K, x1 = 0.7998 | 745.947 | 1223.2 | 1.31
293.15 K, x1 = 1 | – | 1203.6 | –
303.15 K, x1 = 0.1 | 741.234 | 1250.3 | 1.22
303.15 K, x1 = 0.2 | 740.898 | 1241.1 | 1.2
303.15 K, x1 = 0.2885 | 740.654 | 1233.2 | 1.18
303.15 K, x1 = 0.3998 | 740.15 | 1223.2 | 1.16
303.15 K, x1 = 0.4999 | 739.835 | 1213.4 | 1.15
303.15 K, x1 = 0.6501 | 739.313 | 1199.6 | 1.13
303.15 K, x1 = 0.7998 | 738.715 | 1184.7 | 1.12
303.15 K, x1 = 1 | – | 1164.8 | –
313.15 K, x1 = 0.1 | 733.97 | 1212.5 | 1.03
313.15 K, x1 = 0.2 | 733.64 | 1203.3 | 1.02
313.15 K, x1 = 0.2885 | 733.415 | 1195.5 | 1
313.15 K, x1 = 0.3998 | 732.953 | 1185.4 | 0.988
313.15 K, x1 = 0.4999 | 732.598 | 1175.7 | 0.977
313.15 K, x1 = 0.6501 | 732.066 | 1161.8 | 0.962
313.15 K, x1 = 0.7998 | 731.445 | 1146.8 | 0.952
313.15 K, x1 = 1 | – | 1126.7 | –
323.15 K, x1 = 0.1 | 726.674 | 1175.3 | 0.898
323.15 K, x1 = 0.2 | 726.352 | 1166.2 | 0.885
323.15 K, x1 = 0.2885 | 726.139 | 1158.3 | 0.876
323.15 K, x1 = 0.3998 | 725.68 | 1148.3 | 0.863
323.15 K, x1 = 0.4999 | 725.324 | 1138.5 | 0.856
323.15 K, x1 = 0.6501 | 724.781 | 1124.6 | 0.844
323.15 K, x1 = 0.7998 | 724.136 | 1109.5 | 0.836
323.15 K, x1 = 1 | – | 1089.3 | –
333.15 K, x1 = 0.1 | 719.342 | 1138.7 | 0.784
333.15 K, x1 = 0.2 | 719.024 | 1129.6 | 0.774
333.15 K, x1 = 0.2885 | 718.82 | 1121.7 | 0.766
333.15 K, x1 = 0.3998 | 718.363 | 1111.7 | 0.757
333.15 K, x1 = 0.4999 | 718.004 | 1101.9 | 0.75
333.15 K, x1 = 0.6501 | 717.449 | 1087.9 | 0.741
333.15 K, x1 = 0.7998 | 716.783 | 1072.8 | 0.734
333.15 K, x1 = 1 | – | 1052.5 | –
343.15 K, x1 = 0.1 | 711.9 | – | 0.691
343.15 K, x1 = 0.2 | 711.7 | – | 0.683
343.15 K, x1 = 0.2885 | 711.5 | – | 0.677
343.15 K, x1 = 0.3998 | 710.9 | – | 0.668
343.15 K, x1 = 0.4999 | 710.6 | – | 0.664
343.15 K, x1 = 0.6501 | 710 | – | 0.656
343.15 K, x1 = 0.7998 | 709.4 | – | 0.651
353.15 K, x1 = 0.1 | 704.4 | – | 0.614
353.15 K, x1 = 0.2 | 704.1 | – | 0.607
353.15 K, x1 = 0.2885 | 703.8 | – | 0.603
353.15 K, x1 = 0.3998 | 703.5 | – | 0.595
353.15 K, x1 = 0.4999 | 703 | – | 0.591
353.15 K, x1 = 0.6501 | 702.5 | – | 0.584
353.15 K, x1 = 0.7998 | 701.8 | – | 0.58
363.15 K, x1 = 0.1 | 696.8 | – | 0.551
363.15 K, x1 = 0.2 | 696.5 | – | 0.545
363.15 K, x1 = 0.2885 | 696.3 | – | 0.526
363.15 K, x1 = 0.3998 | 695.8 | – | 0.534
363.15 K, x1 = 0.4999 | 695.4 | – | 0.531
363.15 K, x1 = 0.6501 | 694.8 | – | 0.525
363.15 K, x1 = 0.7998 | 694.1 | – | 0.521
373.15 K, x1 = 0.1 | 689 | – | 0.498
373.15 K, x1 = 0.2 | 688.8 | – | 0.493
373.15 K, x1 = 0.2885 | 688.6 | – | 0.49
373.15 K, x1 = 0.3998 | 688.1 | – | 0.483
373.15 K, x1 = 0.4999 | 687.7 | – | 0.481
373.15 K, x1 = 0.6501 | 687.1 | – | 0.476
373.15 K, x1 = 0.7998 | 686.3 | – | 0.472

Conditions | surface tension liquid-gas [mN/m]
x1 = 0.1 | 24.3
x1 = 0.2 | 24.1
x1 = 0.2885 | 23.7
x1 = 0.3998 | 23.3
x1 = 0.4999 | 23.2
x1 = 0.6501 | 22.7
x1 = 0.7998 | 22.3
x1 = 1 | 21.8
